# Measured values reported in patent US10870647B2, “Imidazopyridine derivative, method for preparing same, and pharmaceutical composition containing same as active ingredient for preventing or treating cancer” (DAEGU-GYEONGBUK MEDICAL INNOVATION FOUNDATION, priority 2016, dated 2020).
# Tests used:
# Assay in all cases: Kinase selectivity, scanMAX Kinase assay panel (DiscoverX), % control at 1 uM
# Format in all cases: binding
# [1] = target: T1, scanMAX Kinase assay panel (Homo sapiens, UniProt Q9BUB5); conditions: MKNK1; 1 uM; read-out: Percent Control (%)
# T1 construct: purchased DiscoverX
# How it was run: (§1)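 Binding across the scanMAX kinase panel was tested at 1 uM compound. % control = (compound − positive control)/(negative control − positive control) × 100; below 35 counted as active.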
# [2] = target: T2, scanMAX Kinase assay panel (Homo sapiens, UniProt P29317); conditions: EPHA2; 1 uM; read-out: Percent Control (%)
# T2 construct: purchased DiscoverX
# How it was run: as §1
# [3] = target: T3, scanMAX Kinase assay panel (Homo sapiens, UniProt P07947); conditions: YES; 1 uM; read-out: Percent Control (%)
# T3 construct: purchased DiscoverX
# How it was run: as §1
# [4] = target: T4, scanMAX Kinase assay panel (Homo sapiens, UniProt Q9UQ88); conditions: CDC2L2; 1 uM; read-out: Percent Control (%)
# T4 construct: purchased DiscoverX
# T4 sequence (Q9UQ88 1-783): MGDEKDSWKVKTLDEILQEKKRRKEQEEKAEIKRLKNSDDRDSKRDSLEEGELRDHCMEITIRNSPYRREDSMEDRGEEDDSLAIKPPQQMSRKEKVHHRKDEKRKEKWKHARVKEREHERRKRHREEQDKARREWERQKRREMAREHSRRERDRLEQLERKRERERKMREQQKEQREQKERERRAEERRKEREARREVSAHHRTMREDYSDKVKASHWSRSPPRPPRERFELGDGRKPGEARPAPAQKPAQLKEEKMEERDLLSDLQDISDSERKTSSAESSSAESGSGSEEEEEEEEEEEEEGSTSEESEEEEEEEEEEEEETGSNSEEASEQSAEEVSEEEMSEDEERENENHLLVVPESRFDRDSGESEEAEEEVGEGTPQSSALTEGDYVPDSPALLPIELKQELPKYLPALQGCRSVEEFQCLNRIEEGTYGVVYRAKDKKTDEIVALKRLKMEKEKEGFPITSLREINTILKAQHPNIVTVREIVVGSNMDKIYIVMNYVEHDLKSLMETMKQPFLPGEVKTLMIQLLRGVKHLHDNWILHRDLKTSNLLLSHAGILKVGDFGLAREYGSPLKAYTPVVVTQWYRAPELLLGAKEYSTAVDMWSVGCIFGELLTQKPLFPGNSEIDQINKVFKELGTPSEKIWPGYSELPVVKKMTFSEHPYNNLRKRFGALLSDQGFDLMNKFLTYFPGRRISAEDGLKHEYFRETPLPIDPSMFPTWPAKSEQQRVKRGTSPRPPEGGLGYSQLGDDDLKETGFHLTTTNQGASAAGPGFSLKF
# How it was run: as §1
# [5] = target: T5, scanMAX Kinase assay panel (Homo sapiens, UniProt Q9BXA7); conditions: TSSK1B; 1 uM; read-out: Percent Control (%)
# T5 construct: purchased DiscoverX
# T5 sequence (Q9BXA7 1-367): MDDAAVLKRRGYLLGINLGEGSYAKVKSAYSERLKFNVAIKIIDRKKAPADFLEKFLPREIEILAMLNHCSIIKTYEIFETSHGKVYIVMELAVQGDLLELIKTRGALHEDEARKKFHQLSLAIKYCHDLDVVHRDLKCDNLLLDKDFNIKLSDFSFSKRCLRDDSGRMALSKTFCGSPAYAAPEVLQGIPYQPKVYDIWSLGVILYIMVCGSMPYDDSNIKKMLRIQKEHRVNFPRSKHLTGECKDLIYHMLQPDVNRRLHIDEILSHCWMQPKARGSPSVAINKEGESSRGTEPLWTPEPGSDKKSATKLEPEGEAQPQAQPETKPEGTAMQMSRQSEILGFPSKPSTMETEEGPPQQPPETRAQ
# How it was run: as §1
# [6] = target: T6, scanMAX Kinase assay panel (Homo sapiens, UniProt Q6P2M8); conditions: CAMK1B; 1 uM; read-out: Percent Control (%)
# T6 construct: purchased DiscoverX
# How it was run: as §1
# [7] = target: T7, scanMAX Kinase assay panel (Homo sapiens, UniProt Q86YV6); conditions: MYLK4; 1 uM; read-out: Percent Control (%)
# T7 construct: purchased DiscoverX
# T7 sequence (Q86YV6 1-388): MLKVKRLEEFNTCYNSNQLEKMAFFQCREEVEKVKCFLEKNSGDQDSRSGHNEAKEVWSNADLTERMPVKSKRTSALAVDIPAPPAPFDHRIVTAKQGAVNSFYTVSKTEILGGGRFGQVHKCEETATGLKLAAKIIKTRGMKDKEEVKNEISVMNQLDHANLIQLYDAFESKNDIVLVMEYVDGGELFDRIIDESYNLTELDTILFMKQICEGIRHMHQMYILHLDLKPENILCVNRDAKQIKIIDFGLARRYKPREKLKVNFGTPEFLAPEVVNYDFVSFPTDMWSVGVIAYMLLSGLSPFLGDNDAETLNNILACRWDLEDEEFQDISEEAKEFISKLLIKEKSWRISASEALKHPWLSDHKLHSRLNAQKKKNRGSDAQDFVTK
# How it was run: as §1
# [8] = target: T8, scanMAX Kinase assay panel (Homo sapiens, UniProt Q9Y2I7); conditions: PIKFYVE; 1 uM; read-out: Percent Control (%)
# T8 construct: purchased DiscoverX
# How it was run: as §1
# [9] = target: T9, scanMAX Kinase assay panel (Homo sapiens, UniProt P00519, Y253F); conditions: ABL1 (Y253F)-phosphorylated; 1 uM; read-out: Percent Control (%)
# T9 construct: purchased DiscoverX
# How it was run: as §1
# [10] = target: T10, scanMAX Kinase assay panel (Homo sapiens, UniProt Q13464); conditions: ROCK1; 1 uM; read-out: Percent Control (%)
# T10 construct: purchased DiscoverX
# How it was run: as §1
# [11] = target: T11, scanMAX Kinase assay panel (Homo sapiens, UniProt Q9HBH9); conditions: MKNK2; 1 uM; read-out: Percent Control (%)
# T11 construct: purchased DiscoverX
# How it was run: as §1
# T1 sequence (Q9BUB5 whole entry): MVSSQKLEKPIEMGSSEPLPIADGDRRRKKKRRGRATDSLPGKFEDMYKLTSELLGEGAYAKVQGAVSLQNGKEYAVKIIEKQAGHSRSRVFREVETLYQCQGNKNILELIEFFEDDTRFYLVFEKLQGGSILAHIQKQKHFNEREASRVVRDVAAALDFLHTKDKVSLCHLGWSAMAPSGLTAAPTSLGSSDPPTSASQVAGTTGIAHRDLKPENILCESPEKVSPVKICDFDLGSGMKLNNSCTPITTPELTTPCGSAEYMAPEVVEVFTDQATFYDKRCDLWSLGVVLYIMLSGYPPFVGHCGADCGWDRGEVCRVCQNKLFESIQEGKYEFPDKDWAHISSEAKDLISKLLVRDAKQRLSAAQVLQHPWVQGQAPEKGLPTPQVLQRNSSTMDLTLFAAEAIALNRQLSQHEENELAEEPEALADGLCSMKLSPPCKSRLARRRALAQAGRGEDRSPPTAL
# T2 sequence (P29317 24-976): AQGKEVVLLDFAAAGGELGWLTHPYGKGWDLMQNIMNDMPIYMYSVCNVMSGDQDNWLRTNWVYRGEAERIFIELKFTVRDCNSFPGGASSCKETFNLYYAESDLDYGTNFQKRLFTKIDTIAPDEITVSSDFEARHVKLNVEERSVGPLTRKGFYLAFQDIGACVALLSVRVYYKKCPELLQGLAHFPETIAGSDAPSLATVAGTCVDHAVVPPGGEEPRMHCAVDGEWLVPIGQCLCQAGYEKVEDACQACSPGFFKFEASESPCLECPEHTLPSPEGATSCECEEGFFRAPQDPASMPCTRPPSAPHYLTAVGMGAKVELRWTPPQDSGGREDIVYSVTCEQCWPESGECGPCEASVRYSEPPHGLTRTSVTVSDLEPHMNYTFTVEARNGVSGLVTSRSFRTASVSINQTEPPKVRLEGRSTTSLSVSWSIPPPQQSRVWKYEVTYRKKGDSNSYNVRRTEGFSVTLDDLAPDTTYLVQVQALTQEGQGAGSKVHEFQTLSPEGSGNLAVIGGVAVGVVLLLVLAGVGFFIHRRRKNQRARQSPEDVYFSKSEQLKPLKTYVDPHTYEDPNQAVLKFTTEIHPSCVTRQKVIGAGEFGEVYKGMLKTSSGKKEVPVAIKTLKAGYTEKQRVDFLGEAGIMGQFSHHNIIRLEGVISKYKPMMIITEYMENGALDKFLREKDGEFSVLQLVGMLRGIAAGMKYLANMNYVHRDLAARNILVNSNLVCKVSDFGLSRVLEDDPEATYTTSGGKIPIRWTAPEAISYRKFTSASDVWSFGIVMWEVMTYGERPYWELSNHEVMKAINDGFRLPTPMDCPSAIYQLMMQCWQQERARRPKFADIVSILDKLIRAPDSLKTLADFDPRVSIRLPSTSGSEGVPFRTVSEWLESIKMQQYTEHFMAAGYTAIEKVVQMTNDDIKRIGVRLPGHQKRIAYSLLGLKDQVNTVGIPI
# T11 sequence (Q9HBH9 whole entry): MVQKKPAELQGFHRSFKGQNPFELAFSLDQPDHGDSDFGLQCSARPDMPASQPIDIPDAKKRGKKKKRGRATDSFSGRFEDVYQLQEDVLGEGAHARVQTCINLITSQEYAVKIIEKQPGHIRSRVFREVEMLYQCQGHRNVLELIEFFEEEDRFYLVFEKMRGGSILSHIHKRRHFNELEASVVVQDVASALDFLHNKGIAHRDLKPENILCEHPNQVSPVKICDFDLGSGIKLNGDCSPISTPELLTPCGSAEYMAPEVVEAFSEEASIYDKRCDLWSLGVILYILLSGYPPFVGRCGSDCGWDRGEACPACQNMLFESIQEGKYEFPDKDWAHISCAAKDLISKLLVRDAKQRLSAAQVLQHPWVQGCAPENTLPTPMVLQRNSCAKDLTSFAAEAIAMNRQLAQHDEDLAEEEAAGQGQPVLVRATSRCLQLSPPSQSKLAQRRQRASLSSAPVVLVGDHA
# T3 sequence (P07947 whole entry): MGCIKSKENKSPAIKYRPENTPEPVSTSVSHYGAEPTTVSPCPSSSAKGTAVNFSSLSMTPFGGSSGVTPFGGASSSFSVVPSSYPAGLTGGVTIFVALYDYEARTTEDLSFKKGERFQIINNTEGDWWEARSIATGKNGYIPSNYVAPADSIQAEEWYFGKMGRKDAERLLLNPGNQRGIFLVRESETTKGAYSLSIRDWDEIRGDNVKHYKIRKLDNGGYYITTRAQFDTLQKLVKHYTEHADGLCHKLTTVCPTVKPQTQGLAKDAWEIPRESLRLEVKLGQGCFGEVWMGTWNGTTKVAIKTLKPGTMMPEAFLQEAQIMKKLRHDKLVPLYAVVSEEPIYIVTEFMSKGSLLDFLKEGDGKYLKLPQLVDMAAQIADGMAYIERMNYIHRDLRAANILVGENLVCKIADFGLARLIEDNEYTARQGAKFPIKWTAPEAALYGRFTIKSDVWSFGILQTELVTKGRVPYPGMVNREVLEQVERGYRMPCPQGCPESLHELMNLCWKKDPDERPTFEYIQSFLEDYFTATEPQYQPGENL
# T8 sequence (Q9Y2I7 whole entry): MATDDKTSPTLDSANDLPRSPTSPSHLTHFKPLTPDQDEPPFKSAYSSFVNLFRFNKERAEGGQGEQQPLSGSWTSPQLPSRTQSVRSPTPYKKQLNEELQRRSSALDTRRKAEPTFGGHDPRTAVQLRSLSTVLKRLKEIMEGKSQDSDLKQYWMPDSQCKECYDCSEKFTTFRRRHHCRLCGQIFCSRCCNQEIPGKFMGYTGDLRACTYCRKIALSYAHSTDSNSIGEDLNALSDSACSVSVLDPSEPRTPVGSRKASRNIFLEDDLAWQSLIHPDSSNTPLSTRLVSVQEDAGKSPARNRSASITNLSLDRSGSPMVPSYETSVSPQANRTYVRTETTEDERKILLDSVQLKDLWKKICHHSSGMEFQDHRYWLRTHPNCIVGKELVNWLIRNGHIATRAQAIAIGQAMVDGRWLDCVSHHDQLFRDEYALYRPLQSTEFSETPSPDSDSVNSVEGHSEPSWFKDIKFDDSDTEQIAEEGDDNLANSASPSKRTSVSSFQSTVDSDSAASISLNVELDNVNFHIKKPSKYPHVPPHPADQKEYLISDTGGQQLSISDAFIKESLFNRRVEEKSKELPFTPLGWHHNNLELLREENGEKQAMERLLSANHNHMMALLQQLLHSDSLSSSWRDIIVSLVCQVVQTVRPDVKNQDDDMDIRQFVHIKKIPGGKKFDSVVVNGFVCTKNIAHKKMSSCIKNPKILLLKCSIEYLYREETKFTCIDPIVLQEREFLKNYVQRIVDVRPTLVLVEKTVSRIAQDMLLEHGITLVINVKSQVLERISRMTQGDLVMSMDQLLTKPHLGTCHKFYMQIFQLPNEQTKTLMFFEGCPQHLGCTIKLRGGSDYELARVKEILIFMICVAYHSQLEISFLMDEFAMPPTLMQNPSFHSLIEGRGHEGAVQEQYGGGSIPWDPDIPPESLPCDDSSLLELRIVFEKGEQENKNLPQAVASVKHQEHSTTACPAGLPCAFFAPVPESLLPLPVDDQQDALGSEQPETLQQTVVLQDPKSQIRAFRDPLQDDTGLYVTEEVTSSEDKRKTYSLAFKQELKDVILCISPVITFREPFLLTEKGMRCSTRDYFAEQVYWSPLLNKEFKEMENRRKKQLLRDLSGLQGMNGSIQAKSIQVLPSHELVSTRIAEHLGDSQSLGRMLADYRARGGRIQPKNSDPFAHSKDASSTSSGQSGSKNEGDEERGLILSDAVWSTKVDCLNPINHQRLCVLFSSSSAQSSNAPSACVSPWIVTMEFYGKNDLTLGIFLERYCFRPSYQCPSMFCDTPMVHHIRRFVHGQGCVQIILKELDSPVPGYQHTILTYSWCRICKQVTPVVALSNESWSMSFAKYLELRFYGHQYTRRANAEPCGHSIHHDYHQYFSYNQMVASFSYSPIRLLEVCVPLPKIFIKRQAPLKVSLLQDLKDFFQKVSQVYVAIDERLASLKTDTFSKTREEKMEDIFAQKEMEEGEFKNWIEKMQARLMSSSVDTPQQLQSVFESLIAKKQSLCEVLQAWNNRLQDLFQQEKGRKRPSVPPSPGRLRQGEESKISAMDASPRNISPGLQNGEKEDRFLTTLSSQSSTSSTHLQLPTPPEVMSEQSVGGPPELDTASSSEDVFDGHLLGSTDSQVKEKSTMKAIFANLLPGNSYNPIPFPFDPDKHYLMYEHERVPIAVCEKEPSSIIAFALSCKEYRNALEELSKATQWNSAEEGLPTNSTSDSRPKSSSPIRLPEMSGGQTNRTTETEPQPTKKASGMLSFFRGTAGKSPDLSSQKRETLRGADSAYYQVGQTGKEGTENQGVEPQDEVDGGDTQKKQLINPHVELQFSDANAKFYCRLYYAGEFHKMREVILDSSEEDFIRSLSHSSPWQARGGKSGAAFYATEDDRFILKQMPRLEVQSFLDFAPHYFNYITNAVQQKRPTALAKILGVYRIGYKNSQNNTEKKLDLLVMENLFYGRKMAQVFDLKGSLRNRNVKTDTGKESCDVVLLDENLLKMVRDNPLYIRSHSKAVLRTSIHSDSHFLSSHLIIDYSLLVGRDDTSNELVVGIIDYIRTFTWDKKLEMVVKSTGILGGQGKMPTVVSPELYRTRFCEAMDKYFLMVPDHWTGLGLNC
# T6 sequence (Q6P2M8 whole entry): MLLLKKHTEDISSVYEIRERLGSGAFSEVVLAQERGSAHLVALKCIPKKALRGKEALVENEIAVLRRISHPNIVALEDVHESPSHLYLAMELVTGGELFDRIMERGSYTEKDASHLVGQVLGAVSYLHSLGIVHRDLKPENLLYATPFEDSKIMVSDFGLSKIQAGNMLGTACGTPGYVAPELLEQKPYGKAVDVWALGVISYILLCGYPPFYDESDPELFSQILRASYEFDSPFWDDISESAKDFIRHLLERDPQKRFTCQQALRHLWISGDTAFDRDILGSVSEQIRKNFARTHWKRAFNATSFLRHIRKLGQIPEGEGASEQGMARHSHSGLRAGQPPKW
smiles,measurement,setting,value
"Cc1ccc(C(=O)Nc2ccc(CN3CCN(C)CC3)c(C(F)(F)F)c2)cc1C#Cc1cnc2c(Nc3cnn(C)c3)cccn12 [Example 1, 4-methyl-3-((8-((1-methyl-1H-pyrazol-4-yl)amino)imidazo[1,2-a]pyridin-3-yl)ethynyl)-N-(4-((4-methylpiperazin-1-yl)methyl)-3-(trifluoromethyl)phenyl)benzamide]",remaining binding at 1 µM,[1],47%
same,remaining binding at 1 µM,[2],2%
same,remaining binding at 1 µM,[3],1%
same,remaining binding at 1 µM,[4],28%
same,remaining binding at 1 µM,[5],95%
same,remaining binding at 1 µM,[6],62%
same,remaining binding at 1 µM,[7],86%
same,remaining binding at 1 µM,[8],84%
same,remaining binding at 1 µM,[9],0%
same,remaining binding at 1 µM,[10],89%
same,remaining binding at 1 µM,[11],2%
"Cc1cn(-c2cc(NC(=O)c3ccc(C)c(C#Cc4cnc5c(Nc6cnn(C)c6)cccn45)c3)cc(C(F)(F)F)c2)cn1 [Example 12, 4-methyl-N-(3-(4-methyl-1H-imidazol-1-yl)-5-(trifluoromethyl)phenyl)-3-((8-((1-methyl-1H-pyrazol-4-yl)amino)imidazo[1,2-a]pyridin-3-yl)ethynyl)benzamide]",remaining binding at 1 µM,[1],100%
same,remaining binding at 1 µM,[2],9%
same,remaining binding at 1 µM,[3],2%
same,remaining binding at 1 µM,[4],72%
same,remaining binding at 1 µM,[5],61%
same,remaining binding at 1 µM,[6],100%
same,remaining binding at 1 µM,[7],92%
same,remaining binding at 1 µM,[8],65%
same,remaining binding at 1 µM,[9],10%
same,remaining binding at 1 µM,[10],100%
same,remaining binding at 1 µM,[11],78%
Cc1ccc(NC(=O)C2(C(=O)Nc3ccc(F)cc3)CC2)cc1C#Cc1cnc2c(Nc3cnn(C(C)C)c3)cccn12 [Example 78],remaining binding at 1 µM,[1],100%
same,remaining binding at 1 µM,[2],91%
same,remaining binding at 1 µM,[3],100%
same,remaining binding at 1 µM,[4],100%
same,remaining binding at 1 µM,[5],100%
same,remaining binding at 1 µM,[6],100%
same,remaining binding at 1 µM,[7],100%
same,remaining binding at 1 µM,[8],91%
same,remaining binding at 1 µM,[9],88%
same,remaining binding at 1 µM,[10],100%
same,remaining binding at 1 µM,[11],100%
